Measured values from patent US20050215530A1, “Combination therapy for the treatment of cancer” (priority 2002, published 2005).

How the values were obtained:
[1] = tested on: tumour vasculature; conditions: reported in Proc. Am Assoc. Cancer Res. 2000; 41: 329; cited from earlier work
[2] = tested on: A549 human NSCLC cells; experiment: A549 NSCLC xenograft model; conditions: for Tumour size: day 42 after tumour implantation, RT 4 Gy days 8, 9, 15, 16, ZD6126 150 mg/kg i.p. days 10, 17, ZD1839 2.5 mg per day p.o. days 7-11 and 14-18
Description: A549 NSCLC Xenograft Model
A human non-small cell lung cancer (NSCLC) xenograft model was used. Athymic nude mice were injected subcutaneously (s.c.) with A549 human NSCLC cells. Treatment began after 7 days when tumours were established (tumour volume=100-300 mm^3). […] Animals in all groups were sacrificed on day 42 after tumour cell implantation, when the control tumours reached approximately 2.0 cm^3.

[3] = tested on: human LoVo tumour cells; experiment: LoVo tumour model; assay type: in vivo, athymic nude mice; conditions: s.c. LoVo xenograft; ZD6126 200 mg/kg i.p. day 0; ZD1839 200 mg/kg/day p.o. days 0-13; 8 mice per group
Description: Athymic nude mice were implanted subcutaneously with 1.5×10^7 human LoVo tumour cells (obtained from European Collection of Cell Cultures, ECACC, CAMR, Salisbury, Wiltshire, SP4 0JG, UK; Cat. no. CCL 229) and tumours allowed to grow until they were approximately 9 mm in diameter. Groups of 8 tumour bearing mice were then treated as follows: • Control animals were dosed with PBSA 0.1 ml/10 g intraperitoneally (i.p.) single bolus on day 0 then about 2 h hours later 0.1% Tween 80 0.1 ml/10 g orally (p.o.) on day 0, followed by 0.1% Tween 80 0.1 ml/10 g p.o. once daily on days 1-13; • ZD6126 alone was dosed 200 mg/kg i.p. on day 0; • ZD1839 alone was dosed 200 mg/kg/day p.o. on days 0-13; and
(in the combination arm) ZD6126 200 mg/kg i.p. on day 0 then about 2 hours later ZD1839 200 mg/kg p.o. dosed on day 0, followed by ZD1839 200 mg/kg p.o. once daily on days 1-13. Tumour growth was measured twice weekly from calliper measurements of tumour diameter and the time taken for tumours to double in size compared using the Mann-Whitney U statistic.

| Structure (SMILES) | effect on tumour vasculature (in words) [1] | inhibition of tumour growth (in words) ([2]; A549 xenograft, compared with control animals or single agents) | Tumour size [2] [cm^3 S.D.] | Growth delay in days for tumours to double in size [3] |
| --- | --- | --- | --- | --- |
| COc1cc2c(c(OC)c1OC)-c1ccc(OP(=O)(O)O)cc1[C@@H](NC(C)=O)CC2 [ZD6126, N-acetylcolchinol-O-phosphate] | selectively disrupts tumour vasculature leading to vessel occlusion and extensive tumour necrosis | marked inhibition of tumour growth | 1.17 ± 0.10 | 3.6 days; p < 0.05 |
| COc1cc2ncnc(Nc3ccc(F)c(Cl)c3)c2cc1OCCCN1CCOCC1 [ZD1839, N-(3-chloro-4-fluorophenyl)-7-methoxy-6-(3-morpholinopropoxy)quinazolin-4-amine, reference compound] |  |  | 1.41 ± 0.08 | 8.3 days; p < 0.01 |
